Assay results reported in BindingDB's records for doi:10.1021/jm00107a051 (Merck Sharp and Dohme Research Laboratories, 1991).

Target: T1, Dimer of Gag-Pol polyprotein [489-587] (Human immunodeficiency virus 1, UniProt P12497)
T1 construct: 489-587
Experiment: Protease Inhibition Assay
Conditions: pH 5.5; 30 °C
Experimental: Sensitivity of HIV-1 protease activity to protease inhibitors was determined by a peptide substrate cleavage assay. Protease products were analyzed on a reverse-phase high-pressure liquid chromatograph.

| SMILES | IC50 [nM] |
| --- | --- |
| CC(C)(C)OC(=O)N[C@@H](Cc1ccccc1)[C@@H](O)C[C@@H](Cc1ccccc1)C(=O)N[C@H]1c2ccccc2[C@@H](N)[C@H]1O [tert-butyl N-[(2S,3S,5R)-5-{[(1S,2R,3R)-3-amino-2-hydroxy-2,3-dihydro-1H-inden-1-yl]carbamoyl}-5-benzyl-3-hydroxy-1-phenylpentan-2-yl]carbamate] | 1.9 |
| CC(C)(C)OC(=O)N[C@@H](Cc1ccccc1)[C@@H](O)C[C@@H](Cc1ccccc1)C(=O)N[C@H]1c2ccccc2C[C@H]1C(N)=O [tert-butyl N-[(2S,3S,5R)-5-benzyl-5-{[(1R,2R)-2-carbamoyl-2,3-dihydro-1H-inden-1-yl]carbamoyl}-3-hydroxy-1-phenylpentan-2-yl]carbamate] | 1.8 |
| CC(C)(C)OC(=O)N[C@@H](Cc1ccccc1)[C@@H](O)C[C@@H](Cc1ccccc1)C(=O)N[C@@H]1c2ccccc2C[C@@H]1O [tert-butyl N-[(2S,3S,5R)-5-benzyl-3-hydroxy-5-{[(1R,2S)-2-hydroxy-2,3-dihydro-1H-inden-1-yl]carbamoyl}-1-phenylpentan-2-yl]carbamate] | 229 |
| CC(C)(C)OC(=O)N[C@@H](Cc1ccccc1)[C@@H](O)C[C@@H](Cc1ccccc1)C(=O)NC1Cc2ccccc2C1 [tert-butyl N-[(2S,3S,5R)-5-benzyl-5-(2,3-dihydro-1H-inden-2-ylcarbamoyl)-3-hydroxy-1-phenylpentan-2-yl]carbamate] | 19 |
